These results are taken from patent US20140228377A1, “METHYLPIPERIDINE DERIVATIVE” (TAISHO PHARMACEUTICAL CO., LTD., priority 2011, published 2014).

pIC50: −log10 of the molar value.

Data set [1] has as its target T1, human orexin-1 receptor (hOX1R) (Homo sapiens, UniProt O43613).
T1 construct: expressed in transfected cells; host or cells: Chinese hamster ovary (CHO) cells
T1 sequence (O43613 1-425): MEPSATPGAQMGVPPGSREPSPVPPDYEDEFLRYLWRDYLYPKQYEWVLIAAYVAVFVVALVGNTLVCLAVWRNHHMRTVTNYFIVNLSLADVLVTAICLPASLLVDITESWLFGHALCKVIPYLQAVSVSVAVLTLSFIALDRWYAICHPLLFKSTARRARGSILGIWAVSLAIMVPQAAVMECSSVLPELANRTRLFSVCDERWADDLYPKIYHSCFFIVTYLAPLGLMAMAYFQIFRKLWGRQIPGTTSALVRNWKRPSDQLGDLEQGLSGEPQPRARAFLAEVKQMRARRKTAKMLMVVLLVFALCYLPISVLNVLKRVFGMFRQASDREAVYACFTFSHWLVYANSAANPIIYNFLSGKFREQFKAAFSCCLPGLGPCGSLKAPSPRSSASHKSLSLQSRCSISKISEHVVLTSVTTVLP
Briefly: Orexin antagonistic activity assay (intracellular Ca2+, FDSS) in CHO cells expressing hOX1R. It counts as cell-based. The settings on record: CHO cells expressing hOX1R; ligand peptide 300 pM; Fluo-3 maximum fluorescence intensity; read-out: IC50 value OX1. The essentials:
(§1)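 Recombinant CHO cells, Fluo-3 AM loaded, were preincubated 30 min with compound, then stimulated with a modified orexin-A peptide (300 pM for hOX1R, 3 nM for hOX2R). Peak Ca2+ fluorescence read each second for 3 min; IC50 from concentration-response, normalised to ligand-only (100%) and no-ligand (0%) wells.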

The target in data set [2] is T2, orexin-2 receptor (hOX2R) (Homo sapiens, UniProt O43614).
T2 construct: expressed in transfected cells; host or cells: Chinese hamster ovary (CHO) cells
T2 sequence (O43614 1-444): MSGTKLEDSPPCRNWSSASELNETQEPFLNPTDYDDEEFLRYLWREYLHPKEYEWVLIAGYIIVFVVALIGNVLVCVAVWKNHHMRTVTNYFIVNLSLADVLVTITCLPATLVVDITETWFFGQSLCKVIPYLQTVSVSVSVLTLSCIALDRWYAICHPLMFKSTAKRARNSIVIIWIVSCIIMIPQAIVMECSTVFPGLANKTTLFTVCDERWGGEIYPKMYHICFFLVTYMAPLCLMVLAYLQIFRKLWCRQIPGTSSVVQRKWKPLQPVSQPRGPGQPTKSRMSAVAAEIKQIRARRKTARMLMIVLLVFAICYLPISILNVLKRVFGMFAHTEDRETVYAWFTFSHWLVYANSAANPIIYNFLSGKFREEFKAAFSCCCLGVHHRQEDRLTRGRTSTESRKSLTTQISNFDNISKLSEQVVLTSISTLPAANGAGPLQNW
Briefly: Orexin antagonistic activity assay (intracellular Ca2+, FDSS) in CHO cells expressing hOX2R. It counts as cell-based. The settings on record: CHO cells expressing hOX2R; ligand peptide 3 nM; Fluo-3 maximum fluorescence intensity; read-out: IC50 value OX2. The essentials: as §1

Data set [3] can be described thus: Metabolic stability test using human liver microsomes. The settings on record: human liver microsomes 0.25 mg protein/mL, test compound 1 μM, 37° C., 15 minutes, NADPH production system. Type of data set: in vitro ADME. Here is the method: The stability test on a test compound was conducted according to the following method using human liver microsomes (Ms):
The test compound was incubated (37° C., 15 minutes) together with human liver microsome fraction (XenoTech LLC; H630B, lot. 0810472) in a 0.1 M phosphate buffer solution (pH 7.4) in the presence of a NADPH production system (0.16 mM NADP+, 2.5 mM MgCl2, and 1.5 mM glucose-6-phosphate). The final concentrations of the test compound and the liver Ms protein were set to 1 μM and 0.25 mg protein/mL, respectively. After the incubation, the reaction mixture was supplemented with a 2-fold volume of DMSO, stirred, and then centrifuged at 2150×g (4° C., 10 minutes). The obtained supernatant was analyzed using a liquid chromatography tandem mass spectrometry (LC-MS/MS) system. The lower limit of quantification was 0.1 μM.
A general note: Liver microsomes are a subcellular fraction often used to study metabolism.

For orientation: pIC50 means −log10 of the IC50, conventionally taken in molar units.

As for `Cc1ccc(-n2nccn2)c(C(=O)N2C[C@H](c3nc4cc(Cl)ccc4o3)CC[C@H]2C)n1` [Example 1, [(2R,5R)-5-(5-Chloro-1,3-benzoxazol-2-yl)-2-methylpiperidin-1-yl][6-methyl-3-(2H-1,2,3-triazol-2-yl)pyridin-2-yl]methanone], the pIC50 in data set [1] is 7.96; in data set [2], 7.91. This compound came in with a rate of metabolism in data set [3] of 27.8%.
As to `C[C@@H]1CC[C@@H](c2nc3cc(Cl)ccc3o2)CN1C(=O)c1c(F)cccc1-c1ncccn1` [Example 19, [(2R,5R)-5-(5-Chloro-1,3-benzoxazol-2-yl)-2-methylpiperidin-1-yl][2-fluoro-6-(pyrimidin-2-yl)phenyl]methanone], the pIC50 in data set [1] is 7.08; in data set [2], 8.03.
The matching figures for `C[C@@H]1CC[C@@H](c2nc3cc(F)ccc3o2)CN1C(=O)c1ccccc1-n1nccn1` [Example 28, [(2R,5R)-5-(5-Fluoro-1,3-benzoxazol-2-yl)-2-methylpiperidin-1-yl][2-(2H-1,2,3-triazol-2-yl)phenyl]methanone]: 7.30 and 8.82.
As for `C[C@@H]1CC[C@@H](c2nc3cc(F)ccc3o2)CN1C(=O)c1cc(Cl)ccc1-c1ncccn1` [Example 33, [5-Chloro-2-(pyrimidin-2-yl)phenyl][(2R,5R)-5-(5-fluoro-1,3-benzoxazol-2-yl)-2-methylpiperidin-1-yl]methanone], the pIC50 in data set [1] is 7.35; in data set [2], 8.04.
The matching figures for `Cc1ccc(-c2ncccn2)c(C(=O)N2C[C@H](c3nc4c(Cl)cccc4o3)CC[C@H]2C)c1` [Example 69, [(2R,5R)-5-(4-Chloro-1,3-benzoxazol-2-yl)-2-methylpiperidin-1-yl][5-methyl-2-(pyrimidin-2-yl)phenyl]methanone]: 8.36 and 8.26.
Regarding `Cc1ccc(-c2ncccn2)c(C(=O)N2C[C@H](c3nc4cc(F)ccc4o3)CC[C@H]2C)c1` (single isomer, unassigned) [Example 8, [(2R*,5R*)-5-(5-Fluoro-1,3-benzoxazol-2-yl)-2-methylpiperidin-1-yl][5-methyl-2-(pyrimidin-2-yl)phenyl]methanone], the pIC50 in data set [1] was 9.15; in data set [2], 8.68.
For `C[C@@H]1CC[C@@H](c2nc3cc(Cl)ccc3o2)CN1C(=O)c1ccc(F)cc1-c1ncccn1` [Example 17, [(2R,5R)-5-(5-Chloro-1,3-benzoxazol-2-yl)-2-methylpiperidin-1-yl][4-fluoro-2-(pyrimidin-2-yl)phenyl]methanone], the values for the pIC50 in data set [1] and in data set [2] were 7.26 and 7.99, respectively.
The matching figures for `Cc1ccc(-c2ncccn2)c(C(=O)N2C[C@H](c3nc4cc(C#N)ccc4o3)CC[C@H]2C)c1` [Example 57, 2-{(3R,6R)-6-Methyl-1-[5-methyl-2-(pyrimidin-2-yl)benzoyl]piperidin-3-yl}-1,3-benzoxazole-5-carbonitrile]: 6.25 and 7.70.
As to `C[C@@H]1CC[C@@H](c2nc3c(Cl)cccc3o2)CN1C(=O)c1cc(F)ccc1-c1ncccn1` [Example 70, [(2R,5R)-5-(4-Chloro-1,3-benzoxazol-2-yl)-2-methylpiperidin-1-yl][5-fluoro-2-(pyrimidin-2-yl)phenyl]methanone], the pIC50 is 7.91 in data set [1] and 7.79 in data set [2].
Take `C[C@@H]1CC[C@@H](c2nc3cc(Cl)ccc3o2)CN1C(=O)c1cc(F)ccc1-n1nccn1` (single isomer, unassigned) [Example 2, [(2R*,5R*)-5-(5-Chloro-1,3-benzoxazol-2-yl)-2-methylpiperidin-1-yl][5-fluoro-2-(2H-1,2,3-triazol-2-yl)phenyl]methanone]: the pIC50 in data set [1] was 7.70; in data set [2] it was 8.06.
Take `Cc1ccc(-n2nccn2)c(C(=O)N2C[C@H](c3nc4c(Cl)cccc4o3)CC[C@H]2C)c1` [Example 68, [(2R,5R)-5-(4-Chloro-1,3-benzoxazol-2-yl)-2-methylpiperidin-1-yl][5-methyl-2-(2H-1,2,3-triazol-2-yl)phenyl]methanone]: the pIC50 in data set [1] is 8.15; in data set [2], 8.34.
On to `COc1cnc(-c2ccc(F)cc2C(=O)N2C[C@H](c3nc4cc(Cl)ccc4o3)CC[C@H]2C)nc1` [Example 24, [(2R,5R)-5-(5-Chloro-1,3-benzoxazol-2-yl)-2-methylpiperidin-1-yl][5-fluoro-2-(5-methoxypyrimidin-2-yl)phenyl]methanone], for which the pIC50 in data set [1] was 7.00; in data set [2], 8.07.
The matching figures for `C[C@@H]1CC[C@@H](c2nc3cc(F)ccc3o2)CN1C(=O)c1c(F)cccc1-n1nccn1` [Example 35, [(2R,5R)-5-(5-Fluoro-1,3-benzoxazol-2-yl)-2-methylpiperidin-1-yl][2-fluoro-6-(2H-1,2,3-triazol-2-yl)phenyl]methanone]: 7.04 and 8.30.
The matching figures for `C[C@@H]1CC[C@@H](c2nc3cc(F)ccc3o2)CN1C(=O)c1ccccc1-c1ncccn1` [Example 31, [(2R,5R)-5-(5-Fluoro-1,3-benzoxazol-2-yl)-2-methylpiperidin-1-yl][2-(pyrimidin-2-yl)phenyl]methanone]: 7.17 and 7.53.
As for `Cc1ccc(-c2ncccn2)c(C(=O)N2C[C@H](c3nc4c(F)cccc4o3)CC[C@H]2C)c1` [Example 67, [(2R,5R)-5-(4-Fluoro-1,3-benzoxazol-2-yl)-2-methylpiperidin-1-yl][5-methyl-2-(pyrimidin-2-yl)phenyl]methanone], the results for the pIC50 in data set [1] and in data set [2] were 7.56 and 7.59, respectively.
The matching figures for `C[C@@H]1CC[C@@H](c2nc3cc(F)ccc3o2)CN1C(=O)c1ccc(F)cc1-n1nccn1` [Example 34, [(2R,5R)-5-(5-Fluoro-1,3-benzoxazol-2-yl)-2-methylpiperidin-1-yl][4-fluoro-2-(2H-1,2,3-triazol-2-yl)phenyl]methanone]: 6.67 and 8.08.
The like results for `Cc1ccc(C(=O)N2C[C@H](c3nc4cc(Cl)ccc4o3)CC[C@H]2C)c(-n2nccn2)c1` [Example 26, [(2R,5R)-5-(5-Chloro-1,3-benzoxazol-2-yl)-2-methylpiperidin-1-yl][4-methyl-2-(2H-1,2,3-triazol-2-yl)phenyl]methanone] were, in that order, 7.96 and 8.08.
